# US9962341B2, “Active pharmaceutical ingredient (API) comprising cannabinoids for use in the treatment of cancer” (GW Pharma Limited, priority 2014, dated 2018)
# Read-outs that look alike come from different tables or passages of the source.
# System: SKBR3
# Experiment: Cell viability (CellTiter-Blue, 72 h), SKBR3 breast cancer cells
# Format: cell-based
# Conditions: for IC50: Homo sapiens; for effect (but only 50% effect): extent of effect reached
# Experimental: The cell lines tested in this Example were as follows. Breast cancer: MDA-MB-231; SK-BR3; and BT474. Liver cancer: HepG2.
# The phytocannabinoids were tested alone and in various ratioed combinations in media containing final concentrations of 10% and 1% foetal bovine serum at 72 h for the breast and prostate cancer lines and 1% foetal bovine serum for the liver cancer line HepG2.
# Each tumour cell line was maintained in vitro in RPMI 1640+10% heat inactivated FBS and 2 mM L-glutamine (growth media) at 37° C. in 5% CO2 and humidified conditions. The cells were harvested, washed, re-suspended into growth medium and counted. The cells were re-suspended into assay media (RPMI 1640+5% heat inactivated FBS+ and 2 mM L-glutamine) at 8×104-2×10^5 cells/ml (dependent upon cell type) and plated into the middle 240 wells of 384 well tissue culture plates (Corning CellBind, black-wall plates) 12.5 μl/well aliquots; 62.5 μl of growth media was aliquoted into the outer wells. There were 4 plates for each cell line. The plates were incubated overnight at 37° C., in 5% humidified CO2.
# The phytocannabinoid test compounds were prepared in 100% DMSO vehicle at a stock concentration of 10 mM.
# Starting with the 10 mM stock, the compounds were diluted to 125 μM in FBS-free growth media.
# These were diluted in FBS-free growth media to 125 μM before serial dilution.
# 5 volumes of CBD 10 mM stock was added to 1 volume of the other agent (also at 10 mM) and 4 volumes of DMSO. This made a final concentration of 5 mM:1 mM. This was then diluted in FBS-free growth media so the top concentration of CBD would be 125 μM (before serial dilution). Each compound and compound combination stock was serially diluted in FBS-free growth media (containing 1.25% v/v DMSO) from 125 μM to 41.7, 13.89, 4.63, 1.54, 0.514, 0.171, 0.057 and 0.019 μM (1.25× final assay concentrations). Vehicle was prepared at equivalent dilutions in assay media. The top final concentration of compound in the assay was always 100 μM so CBD5:1CBG was 100 μM CBD and 20 μM CBG.
# Taxotere SOC was prepared at a stock concentration of 1 mM in 100% DMSO. Taxotere was serially diluted from the stock solution into FBS-free growth media to 12.5 μM, then serially diluted in FBS-free growth media containing 1.25% DMSO to 4.17, 1.39, 0.46, 0.154, 0.051, 0.017, 0.006, 0.002 μM (1.25× final assay concentrations).
# This was then serially diluted in FBS-free growth media to 0.417, 0.139, 0.046, 0.0154, 0.0051, 0.0017, 0.0006, 0.0002 μM (1.25× final assay concentrations). This was plated as a positive control for the SKBR3 & BT474 cell lines. 50 μl per well of compound/vehicle dilutions was added to the plates in replicates of 6. Where applicable total volume in the well was made up to 62.5 μl with assay media.
# The plates were incubated for 72 h at 37° C. in 5% humidified CO2. To develop the plates, at 72 h, 10 μl of CellTiter-Blue™ reagent was added to each test/blank well. The plates were incubated at 37° C., 5% humidified CO2. Fluorescence was measured using a Flex II Station plate reader (570 nm excitation wavelength, 600 nm emission wavelength, 590 nm cut-off) after 3 h.
# The experimental conditions were the same as the experiment above, with the same compound dilutions and volumes for plating but using growth media containing 10% FBS rather than FBS-free media.
# The raw data values expressed in relative fluorescent units were normalised to the vehicle for each individual plate and any reduction in fluorescence indicated a decrease in viability.
# The data were analysed in GraphPad PRISM using a non-linear sigmoidal plot with variable slope (asymmetric five point linear regression) and where possible an IC50 value for each single compound and combination was generated.
# For the calculation, raw data values expressed in relative fluorescent units were normalised to the vehicle for each individual plate (set as 0%) and the reduction in fluorescence calculated as an increase in inhibition of viability.
# [1] = SK-BR-3, 72 h, read-out: IC50 values, SKBR3, 1% FBS, 72 h
# [2] = SK-BR-3, 72 h, read-out: IC50 values, SKBR3, 10% FBS, 72 h
# [3] = SK-BR-3, read-out: Dm (median effect dose), SKBR3, 1% FBS, Calcusyn median-effect analysis
compound,measurement,setting,value
"CCCc1cc(O)c2c(c1)OC(C)(C)[C@@H]1CCC(C)=C[C@@H]21 [THCV, Tetrahydrocannabivarin]",IC50,[1],10.8 µM
same,IC50,[2],30 µM
same,IC50,[3],18.3 µM
"C=C(C)[C@@H]1CCC(C)=C[C@H]1c1c(O)cc(CCCCC)c(C(=O)O)c1O [CBDA, Cannabidiolic acid]",IC50,[1],14.5 µM
same,IC50,[2],~100 µM
same,IC50,[3],30 µM
"CCCCCc1cc(O)c(C/C=C(\C)CCC=C(C)C)c(O)c1C(=O)O [CBGA, Cannabigerolic acid]",IC50,[1],10.6 µM
same,IC50,[2],> 100 µM
same,IC50,[3],16.8 µM
"C=C(C)[C@@H]1CCC(C)=C[C@H]1c1c(O)cc(CCCCC)cc1O [CBD, Cannabidiol]",IC50,[1],4 µM
same,IC50,[2],23 µM
same,IC50,[3],9.31 µM
"CCCCCc1cc(O)c(C/C=C(\C)CCC=C(C)C)c(O)c1 [CBG, Cannabigerol]",IC50,[1],4 µM
same,IC50,[2],33 µM
same,IC50,[3],8.55 µM
"CC(=O)O[C@@]12CO[C@@H]1C[C@H](O)[C@@]1(C)C(=O)[C@H](O)C3=C(C)[C@@H](OC(=O)[C@H](O)[C@@H](NC(=O)OC(C)(C)C)c4ccccc4)C[C@@](O)([C@@H](OC(=O)c4ccccc4)[C@H]21)C3(C)C [Taxotere, Docetaxel, reference compound]",IC50,[1],< 0.001 µM
same,IC50,[2],< 0.001 µM
same,effect (but only 50% effect),"SKBR3, 1% FBS",only 50%
same,effect (but only 50% effect),"SKBR3, 10% FBS",50% effect)
